Laboratory results taken from ChEMBL document CHEMBL1909294, “Translating clinical findings into knowledge in drug safety evaluation--drug induced liver injury prediction system (DILIps)” (PLoS Comput Biol, 2011).

Key:
[1] = system: Hepatotoxicity;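 as to HepSE cholecystitis: Cholecystitis-related hepatic side effect score drawn from the DILIps (drug-induced liver injury prediction) training data set; call rule not given here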;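 as to HepSE cholelithiasis: hepatic side effect score for cholelithiasis, drawn from the DILIps training data for predicting drug-induced liver injury; call rule not given here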; as to HepSE hepatic failure: call rule not given here;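 as to HepSE hepatitis: Hepatitis-related hepatic side effect score taken from the training data of DILIps, a prediction system for drug-induced liver injury; call rule not given here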;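 as to HepSE hepatomegaly: hepatic side effect score for hepatomegaly, taken from the training set of the DILIps drug-induced liver injury prediction system; call rule not given here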;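 as to HepSE jaundice: Jaundice-related hepatic side-effect score drawn from the training data of the DILIps (drug-induced liver injury prediction system); call rule not given here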; as to HepSE liver disease: call rule not given here
[2] = system: Hepatotoxicity; remark: listed apart in the source;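 as to HepSE cholecystitis: Cholecystitis-related hepatic side effect score drawn from the DILIps (drug-induced liver injury prediction) training data set; call rule not given here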;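 as to HepSE cholelithiasis: hepatic side effect score for cholelithiasis, drawn from the DILIps training data for predicting drug-induced liver injury; call rule not given here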; as to HepSE hepatic failure: call rule not given here;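 as to HepSE hepatitis: Hepatitis-related hepatic side effect score taken from the training data of DILIps, a prediction system for drug-induced liver injury; call rule not given here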;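 as to HepSE hepatomegaly: hepatic side effect score for hepatomegaly, taken from the training set of the DILIps drug-induced liver injury prediction system; call rule not given here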;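 as to HepSE jaundice: Jaundice-related hepatic side-effect score drawn from the training data of the DILIps (drug-induced liver injury prediction system); call rule not given here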; as to HepSE liver disease: call rule not given here
[3] = system: Hepatotoxicity; remark: listed apart in the source;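 as to HepSE cholecystitis: Cholecystitis-related hepatic side effect score drawn from the DILIps (drug-induced liver injury prediction) training data set; call rule not given here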;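 as to HepSE cholelithiasis: hepatic side effect score for cholelithiasis, drawn from the DILIps training data for predicting drug-induced liver injury; call rule not given here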; as to HepSE hepatic failure: call rule not given here;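 as to HepSE hepatitis: Hepatitis-related hepatic side effect score taken from the training data of DILIps, a prediction system for drug-induced liver injury; call rule not given here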;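 as to HepSE hepatomegaly: hepatic side effect score for hepatomegaly, taken from the training set of the DILIps drug-induced liver injury prediction system; call rule not given here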;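 as to HepSE jaundice: Jaundice-related hepatic side-effect score drawn from the training data of the DILIps (drug-induced liver injury prediction system); call rule not given here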; as to HepSE liver disease: call rule not given here
[4] = system: Hepatotoxicity; remark: listed apart in the source;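 as to HepSE cholecystitis: Cholecystitis-related hepatic side effect score drawn from the DILIps (drug-induced liver injury prediction) training data set; call rule not given here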;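 as to HepSE cholelithiasis: hepatic side effect score for cholelithiasis, drawn from the DILIps training data for predicting drug-induced liver injury; call rule not given here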; as to HepSE hepatic failure: call rule not given here;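 as to HepSE hepatitis: Hepatitis-related hepatic side effect score taken from the training data of DILIps, a prediction system for drug-induced liver injury; call rule not given here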;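 as to HepSE hepatomegaly: hepatic side effect score for hepatomegaly, taken from the training set of the DILIps drug-induced liver injury prediction system; call rule not given here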; as to HepSE liver disease: call rule not given here
[5] = system: Hepatotoxicity; remark: listed apart in the source; as to HepSE hepatic failure: call rule not given here; as to HepSE liver disease: call rule not given here
[6] = system: Hepatotoxicity; remark: listed apart in the source; as to HepSE hepatic failure: call rule not given here; as to HepSE liver disease: call rule not given here
[7] = system: Hepatotoxicity; remark: listed apart in the source
[8] = system: Hepatotoxicity; remark: listed apart in the source
[9] = system: Hepatotoxicity; remark: listed apart in the source
[10] = system: Hepatotoxicity; remark: listed apart in the source
[11] = system: Hepatotoxicity; remark: listed apart in the source
[12] = system: Hepatotoxicity; remark: listed apart in the source
[13] = system: Hepatotoxicity; remark: listed apart in the source
[14] = system: Hepatotoxicity; remark: listed apart in the source

Compound | HepSE_hepatitis [1] | HepSE_cholecystitis [2] | HepSE_liver disease [3] | HepSE_hepatomegaly [4] | HepSE_cholelithiasis [5] | HepSE_hepatic failure [6] | HepSE_jaundice [7] | HepSE_liver function tests abnormal [8] | HepSE_Combined Scores [9] | HepSE_liver fatty [10] | HepSE_hepatic necrosis [11] | HepSE_elevated liver function tests [12] | HepSE_cirrhosis [13] | HepSE_bilirubinemia [14] | other results
CN(C)CCC(c1ccc(Cl)cc1)c1ccccn1 (stereo not drawn) [CHLORPHENIRAMINE] | 0 | 0 | 0 | 0 | 0 | 0 | 0 | 0 | 0 | 0 | 0 | 0 | 0 | 0 | –
CN(C)CCCN1c2ccccc2Sc2ccc(Cl)cc21 [CHLORPROMAZINE] | 0 | 0 | 1 | 0 | 0 | 0 | 1 | 0 | 3 | 0 | 0 | 0 | 1 | 0 | –
CCCNC(=O)NS(=O)(=O)c1ccc(Cl)cc1 [CHLORPROPAMIDE] | 0 | 0 | 0 | 0 | 0 | 0 | 1 | 0 | 1 | 0 | 0 | 0 | 0 | 0 | –
NS(=O)(=O)c1cc(C2(O)NC(=O)c3ccccc32)ccc1Cl (stereo not drawn) [CHLORTHALIDONE] | 0 | 0 | 0 | 0 | 0 | 0 | 1 | 0 | 1 | 0 | 0 | 0 | 0 | 0 | –
C=C1CC[C@H](O)C/C1=C/C=C1\CCC[C@]2(C)[C@@H]([C@H](C)CCCC(C)C)CC[C@@H]12 [CHOLECALCIFEROL] | 0 | 0 | 0 | 0 | 0 | 0 | 0 | 0 | 0 | 0 | 0 | 0 | 0 | 0 | –
CC(C)C(=O)OCC(=O)[C@@]12O[C@H](C3CCCCC3)O[C@@H]1C[C@H]1[C@@H]3CCC4=CC(=O)C=C[C@]4(C)[C@H]3[C@@H](O)C[C@@]12C [CICLESONIDE] | 0 | 0 | 0 | 0 | 0 | 0 | 0 | 0 | 0 | 0 | 0 | 0 | 0 | 0 | –
Cc1cc(C2CCCCC2)n(O)c(=O)c1 [CICLOPIROX] | 0 | 0 | 0 | 0 | 0 | 0 | 0 | 0 | 0 | 0 | 0 | 0 | 0 | 0 | –
Nc1ccn(C[C@@H](CO)OCP(=O)(O)O)c(=O)n1.O.O [CIDOFOVIR] | 1 | 0 | 0 | 1 | 0 | 0 | 1 | 0 | 4 | 0 | 1 | 0 | 0 | 0 | –
CCOC(=O)[C@H](CCc1ccccc1)N[C@H]1CCCN2CCC[C@@H](C(=O)O)N2C1=O [CILAZAPRIL] | 1 | 0 | 0 | 0 | 0 | 0 | 0 | 0 | 1 | 0 | 0 | 0 | 0 | 0 | –
CN/C(=N/CCSCc1nc[nH]c1C)NC#N [CIMETIDINE] | – | – | – | – | – | – | – | – | – | – | – | – | – | – | HepSE_hepatitis ([1]; Liver): 0; HepSE_cholecystitis ([2]; Liver): 0; HepSE_liver disease ([3]; Liver): 0; HepSE_hepatomegaly ([4]; Liver): 0; HepSE_cholelithiasis ([5]; Liver): 0; HepSE_hepatic failure ([6]; Liver): 0; HepSE_jaundice ([7]; Liver): 0; HepSE_liver function tests abnormal ([8]; Liver): 0; HepSE_Combined Scores ([9]; Liver): 0; HepSE_liver fatty ([10]; Liver): 0; HepSE_hepatic necrosis ([11]; Liver): 0; HepSE_elevated liver function tests ([12]; Liver): 0; HepSE_cirrhosis ([13]; Liver): 0; HepSE_bilirubinemia ([14]; Liver): 0
CCn1nc(C(=O)O)c(=O)c2cc3c(cc21)OCO3 [CINOXACIN] | 0 | 0 | 0 | 0 | 0 | 0 | 0 | 0 | 0 | 0 | 0 | 0 | 0 | 0 | –
COc1cc(N)c(Cl)cc1C(=O)NC1CCN(CCCOc2ccc(F)cc2)CC1OC (stereo not drawn) [CISAPRIDE] | 1 | 0 | 0 | 0 | 0 | 0 | 0 | 0 | 1 | 0 | 0 | 0 | 0 | 0 | –
CN(C)CCCC1(c2ccc(F)cc2)OCc2cc(C#N)ccc21 (stereo not drawn) [CITALOPRAM] | 1 | 1 | 0 | 0 | 1 | 1 | 1 | 0 | 7 | 0 | 1 | 0 | 0 | 1 | –
CC[C@H]1OC(=O)[C@H](C)[C@@H](O[C@H]2C[C@@](C)(OC)[C@@H](O)[C@H](C)O2)[C@H](C)[C@@H](O[C@@H]2O[C@H](C)C[C@H](N(C)C)[C@H]2O)[C@](C)(OC)C[C@@H](C)C(=O)[C@H](C)[C@@H](O)[C@]1(C)O [CLARITHROMYCIN] | 1 | 0 | 0 | 1 | 0 | 1 | 1 | 0 | 4 | 0 | 0 | 0 | 0 | 0 | –
CN1CCC[C@@H]1CCO[C@](C)(c1ccccc1)c1ccc(Cl)cc1 [CLEMASTINE] | 0 | 0 | 0 | 0 | 0 | 0 | 0 | – | 0 | 0 | 0 | – | 0 | 0 | HepSE_liver function tests abnormal ([8]; Liver): 0; HepSE_elevated liver function tests ([12]; Liver): 0
CCC[C@@H]1C[C@@H](C(=O)N[C@@H]([C@H]2O[C@H](SC)[C@H](O)[C@@H](O)[C@H]2O)[C@H](C)Cl)N(C)C1 [CLINDAMYCIN] | 0 | 0 | 0 | 0 | 0 | 0 | 1 | 0 | 1 | 0 | 0 | 0 | 0 | 0 | –
C[C@H]1C[C@H]2[C@@H]3CCC4=CC(=O)C=C[C@]4(C)[C@@]3(F)[C@@H](O)C[C@]2(C)[C@@]1(O)C(=O)CCl [CLOBETASOL] | 0 | 0 | 0 | 0 | 0 | 0 | 0 | 0 | 0 | 0 | 0 | 0 | 0 | 0 | –
